# Source: PMC9551036, “A selective and orally bioavailable VHL-recruiting PROTAC achieves SMARCA2 degradation in vivo” (Nature Communications, 2022)
# Several values for one entry are separate records, joined by “and”; a condition that tells them apart may be missing. Equal entries are not always repeated.
# How the values were obtained:
# Microsomal stability = type: in vitro ADME; conditions: for Mic. Stab. Mouse / Mic. Stab. Mouse QH: mouse liver microsomes; for Mic. Stab. Rat / Mic. Stab. Rat QH: rat liver microsomes
# Method: […] Reactions were terminated by addition of acetonitrile and precipitates separated by centrifugation. Compound concentrations in supernatants were measured by HPLC-MS/MS and clearance was calculated from compound half-lives using the well-stirred liver model.
# Caco-2 cell monolayer = test: Bidirectional permeability measurement in Caco-2 cells; type: in vitro ADME; conditions: for Modified Caco-2 Pab + PGPi (Zosuquidar): Modified Caco-2, a to b; for Modified Caco-2 Pba + PGPi (Zosuquidar) / Modified Caco-2 Pba: Modified Caco-2, b to a; for Caco-2 Pba: Caco-2, b to a
# Method: Bidirectional permeability of test compounds across a Caco-2 cell monolayer was measured as described[43] with a modification of preincubation time[44]: Briefly, Caco-2 cells were seeded onto Transwell inserts (#3379, Corning, Wiesbaden, Germany) at a density of 160000 cells/cm^2 and cultured in DMEM (high glucose) containing 10% fetal bovine serum for 14–21 days. Cells were incubated with culture media containing 1 µM test compound for 24 h. […] Samples were taken at different time points for up to 2 h. Test compound in the samples was quantified with LC-MS/MS. To elucidate the role of drug transporter P-gp in the transcellular transport, permeability measurement was performed in the absence and presence of the selective P-gp inhibitor zosuquidar (5 µM final concentration). Apparent permeability coefficients (Papp,AB, Papp,BA) were calculated as follows:1 Papp,AB=Q_AB/C0×s×t 2 Papp,BA=Q_BA/C0×s×t where Q is the amount of compound recovered in the receiver compartment after the incubation time t, C0 the initial compound concentration given to the donor compartment, and s the surface area of the Transwell inserts. Efflux ratio is calculated as the quotient of Papp,BA (mean of duplicate) to Papp,AB (mean of duplicate). […] In addition, Transepithelial electrical resistance (TEER) values were measured for each plate before the permeability assay. All three parameters (efflux of the reference substrates, Papp values of the low permeable compound, and TEER values) were used to ensure the quality of the assays.
# PBRM1BD5 [1] = target: T1, PBRM1BD5 (Homo sapiens, UniProt P40337+Q86U86); test: TR-FRET ternary complex affinity and cooperativity, PBRM1; type: binding; conditions: TR-FRET competition for PBRM1BD5, + VCB; mean ± SD; read-out: TR-FRET Ternary PBRM1BD EC50 (PROTAC + VCB)
# T1 construct: GST (TEV site) (N); His6 (TEV site) (N, cleaved yes); made in house; host or cells: PBRM1^BD5: Escherichia coli BL21(DE3)
# PBRM1BD5 [2] = test: as above; type: binding; conditions: ratio TR-FRET EC50 / TR-FRET EC50 +VCB measured in the same run, PBRM1BD5
# [3] = target: VCB: PROTAC: SMARCA2^BD ternary complex (Homo sapiens, UniProt P40337+P51531); test: SPR ternary complex measurement, VCB immobilised, 10 µM SMARCA2^BD present; type: binding; parameters: P51531-2, residues 1373-1493 with additional N-terminal SM residues; His6 (TEV site) (N, cleaved yes); GST (TEV site) (N, cleaved yes); made in house; host or cells: SMARCA2^BD: Escherichia coli BL21(DE3); conditions: for Kd: SPR; for alpha: cooperativity, SMARCA2, ratio of KD values measured in the same run
# Method: SPR data were acquired on Biacore 8K or T200 instruments (Cytiva). Target proteins were immobilised at 25 °C on CM5 chips by amine coupling (EDC/NHS, Cytiva) in HBS-P+ running buffer (pH 7.4), containing 2 mM TCEP. […] The reference surface was subsequently deactivated using 1 M ethanolamine. […] Biotinylated VCB was prepared as previously described[27]: in brief, the complex was mixed 1:1 with EZ-Link NHS–PEG4–biotin (Thermo Scientific) and incubated at room temperature for 1 h. Unreacted NHS-biotin was removed using a PD-10 desalting column (Cytiva) into 20 mM HEPES, pH 7.5, 150 mM sodium chloride and 1 mM DTT. The reference surface was generated by deactivating the EDC/NHS-treated surface with 1 M ethanolamine. All interaction experiments were done at 6 °C in running buffer (20 mM TRIS, pH 8.3, 150 mM potassium chloride, 2 mM magnesium chloride, 2 mM TCEP, 0.005% TWEEN 20, 1% dimethyl sulfoxide). For ternary complex measurements, a sensor chip surface with VCB immobilised was used (preparation as described above). Experiments were run in dual-inject mode with 10 µM SMARCA present during the injection and dissociation phase. Sensorgrams from reference surfaces and blank injections were subtracted from the raw data prior to data analysis using Biacore Insight software. Affinity and binding kinetic parameters were determined by global fitting using the 1:1 interaction model with a term for mass-transport included.
# [4] = ternary complex with SMARCA2BD, mean ± SD
# Sequence of VCB: PROTAC: SMARCA2^BD ternary complex (P40337 54-213): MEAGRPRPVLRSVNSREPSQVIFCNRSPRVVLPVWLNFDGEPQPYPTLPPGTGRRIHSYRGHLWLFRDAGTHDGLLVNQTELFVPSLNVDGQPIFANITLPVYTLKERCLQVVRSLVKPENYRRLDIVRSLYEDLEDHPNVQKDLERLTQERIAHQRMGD
# Sequence of VCB: PROTAC: SMARCA2^BD ternary complex (Q15369 17-112 partner limits assumed): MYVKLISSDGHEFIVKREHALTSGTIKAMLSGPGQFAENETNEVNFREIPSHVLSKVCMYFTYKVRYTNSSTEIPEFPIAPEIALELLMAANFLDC
# Sequence of VCB: PROTAC: SMARCA2^BD ternary complex (Q15370 1-104 partner limits assumed): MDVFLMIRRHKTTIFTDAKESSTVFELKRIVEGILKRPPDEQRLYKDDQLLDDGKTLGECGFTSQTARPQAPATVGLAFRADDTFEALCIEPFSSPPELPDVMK
# Sequence of VCB: PROTAC: SMARCA2^BD ternary complex (P51531 1373-1493 isoform P51531-2): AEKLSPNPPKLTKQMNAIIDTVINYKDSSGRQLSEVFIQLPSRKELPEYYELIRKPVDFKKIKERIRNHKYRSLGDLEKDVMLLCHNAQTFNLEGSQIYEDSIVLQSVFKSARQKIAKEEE
# T1 sequence (Q86U86 645-766): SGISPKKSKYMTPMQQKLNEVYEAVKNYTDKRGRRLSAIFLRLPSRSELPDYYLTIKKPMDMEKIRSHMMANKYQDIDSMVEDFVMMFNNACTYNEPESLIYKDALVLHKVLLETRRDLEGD
# T1 sequence (P40337 54-213): as the sequence (P40337 54-213) above
# T1 sequence (Q15369 17-112 partner): as the sequence (Q15369 17-112 partner limits assumed) above
# T1 sequence (Q15370 1-104 partner): as the sequence (Q15370 1-104 partner limits assumed) above
Structure (SMILES),Mic. Stab. Human (Microsomal stability; human liver microsomes) [% QH],Mic. Stab. Human QH (Microsomal stability; human liver microsomes),Mic. Stab. Mouse (Microsomal stability) [% QH],Mic. Stab. Mouse QH (Microsomal stability),Mic. Stab. Rat (Microsomal stability) [% QH],Mic. Stab. Rat QH (Microsomal stability),Caco-2 Efflux ratio (Caco-2 cell monolayer; Caco-2),Caco-2 Pab (Caco-2 cell monolayer; Caco-2),"Caco-2 Pab (Caco-2 cell monolayer; Caco-2, a to b) [cm/s]",EC50 (PBRM1BD5 [1]) [nM],cooperativity α (PBRM1BD) (PBRM1BD5 [2]),"Kd [3, 4] [nM]","Kd ([3]; ternary, individual replicates)",alpha [3],further results
Cc1ncsc1-c1ccc(CNC(=O)[C@@H]2C[C@@H](O)CN2C(=O)[C@@H](NC(=O)C2(F)CC2)C(C)(C)C)c(OCCCCN2CCC(c3ccc4c(c3)n(C3CCCC3)c3nc(=O)c5c(Br)cccc5n43)CC2)c1 [compound 23],78,78.440%,42,42.090%,<23,<23.080%,26.136 and 26,0.4 10-6 cm/s,4.01e-07,21 ± 3,2.0 ± 0.4,120 ± 8,116 nM (2×) and 129 nM,0.1,–
Cc1ncsc1-c1ccc([C@H](COC(C)(C)CN2CCC(c3ccc4c(c3)n(C3CCCC3)c3nc(=O)c5c(Br)cccc5n43)CC2)NC(=O)[C@@H]2C[C@@H](O)CN2C(=O)[C@@H](NC(=O)C2(F)CC2)C(C)(C)C)cc1 [compound 28],57 ± 4,51.200% and 55.600% and 59.900% and 60.900%,<24,< 24.200% and 25.800%,<23,< 23.100% and 29.700%,–,5 ± 2 10-6 cm/s,–,4 ± 2,6.9 ± 1.9,120 ± 34,82.7 nM and 149 nM and 127 nM,0.5,Modified Caco-2 Efflux ratio (Caco-2 cell monolayer; Modified Caco-2): 37.037 and >37; Modified Caco-2 Pab (Caco-2 cell monolayer; Modified Caco-2): <7 10-6 cm/s; Modified Caco-2 Pab + PGPi (Zosuquidar) (Caco-2 cell monolayer): 11 ×10⁻⁶ cm/s and 13 ×10⁻⁶ cm/s; Modified Caco-2 Pba + PGPi (Zosuquidar) (Caco-2 cell monolayer): 14 ×10⁻⁶ cm/s
CN1CCC(c2ccc3c(c2)n(C2CCCC2)c2nc(=O)c4c(Br)cccc4n32)CC1 [compound 3],<24,<24.400%,43 ± 10,34.400% and 53.600% and 50.410%,28 ± 1,< 23.100% and 27.400% and 28.840%,0.8,–,2.83e-05,31 ± 11,–,–,–,–,–
Cc1ncsc1-c1ccc([C@H](COC(C)CN2CCC(c3ccc4c(c3)n(C3CCCC3)c3nc(=O)c5c(Br)cccc5n43)CC2)NC(=O)[C@@H]2C[C@@H](O)CN2C(=O)[C@@H](NC(=O)C2(F)CC2)C(C)(C)C)cc1 (some centres unmarked) [compound 9],55 ± 1,54.100% and 55.600%,27 ± 3,24.700% and 28.800% and < 24.200%,<23,<23.100 <23.100 <23.100%,–,–,–,7 ± 3,5.5 ± 1.7,210 ± 83,132 nM and 298 nM and 201 nM,0.2,Caco-2 Pba (Caco-2 cell monolayer): 21 ×10⁻⁶ cm/s and 18 ×10⁻⁶ cm/s; Modified Caco-2 Efflux ratio (Caco-2 cell monolayer; Modified Caco-2): 60.000 and 39 ± 21; Modified Caco-2 Pab + PGPi (Zosuquidar) (Caco-2 cell monolayer): 11 ×10⁻⁶ cm/s and 14 ×10⁻⁶ cm/s; Modified Caco-2 Pba (Caco-2 cell monolayer): 130 ×10⁻⁶ cm/s and 120 ×10⁻⁶ cm/s; Modified Caco-2 Pba + PGPi (Zosuquidar) (Caco-2 cell monolayer): 18 ×10⁻⁶ cm/s
Cc1ncsc1-c1ccc([C@H](COC(C)CN2CCC(c3ccc4c(c3)n(C3CCCC3)c3nc(=O)c5c(Br)cccc5n43)CC2)NC(=O)[C@@H]2C[C@@H](O)CN2C(=O)[C@@H](NC(=O)C2(N(C)C)CC2)C(C)(C)C)cc1 (some centres unmarked) [compound 10],86,85.500%,68 ± 2,66.900% and 69.700%,51 ± 2,49.700% and 52.900%,5,6 10-6 cm/s,–,8 ± 1,4.2 ± 0.4,159 ± 80,74 nM and 233 nM and 171 nM,0.8,Caco-2 Pba (Caco-2 cell monolayer): 21 ×10⁻⁶ cm/s; Modified Caco-2 Efflux ratio (Caco-2 cell monolayer; Modified Caco-2): 36; Modified Caco-2 Pba (Caco-2 cell monolayer): 99 ×10⁻⁶ cm/s and 88 ×10⁻⁶ cm/s
Cc1ncsc1-c1ccc(CNC(=O)[C@@H]2C[C@H](O)CN2C(=O)[C@@H](NC(=O)C2(F)CC2)C(C)(C)C)c(OCCN2CCC(c3ccc4c(c3)n(C3CCCC3)c3nc(=O)c5c(Br)cccc5n43)CC2)c1 [compound 19],82,81.450%,68,67.500%,28,27.950%,–,–,–,40 ± 1,1.0 ± 0.1,–,–,–,–
Cc1ncsc1-c1ccc([C@H](CC[C@H](C)CCN2CCC(c3ccc4c(c3)n(C3CCCC3)c3nc(=O)c5c(Br)cccc5n43)CC2)NC(=O)[C@@H]2C[C@H](O)CN2C(=O)[C@@H](NC(=O)C2(F)CC2)C(C)(C)C)cc1 [compound 12],<24,31.400%,<24,<24.200 NADPH control off limits %,<23,<23.100%,–,–,–,78 ± 7,1.0 ± 0.0,–,–,–,"Mic. Stab. Human degradation without NADPH (Microsomal stability; human liver microsomes, without NADPH): 60%"
Nc1cccc2c1c(=O)nc1n(C3CCCC3)c3ccccc3n21 [compound 2],–,91.040%,–,–,–,88.170%,0.5,–,3.7e-05,959 ± 53,–,–,–,–,–
CN1CCN(c2nc(=O)c3c(Cl)cccc3o2)CC1 [compound 13],–,–,–,–,–,–,0.606 and 0.6,93 10-6 cm/s,9.26e-05,–,–,–,–,–,–
O=c1nc2n(C3CCCC3)c3ccccc3n2c2cccc(Br)c12 [compound 1],–,87.940% and 88.090%,–,86.850%,–,87.000% and 86.360%,0.8,–,3.09e-05,131 ± 8,–,–,–,–,–
Cc1ncsc1-c1ccc(C(CCC(C)CCN2CCC(c3ccc4c(c3)n(C3CCCC3)c3nc(=O)c5c(Br)cccc5n43)CC2)NC(=O)C2CC(O)CN2C(=O)C(NC(=O)C2(F)CC2)C(C)(C)C)cc1 (centres unmarked) [ACBI2],<24,<24.400 <24.400 <24.400 <24.400%,<24,<24.200 <24.200 <24.200 <24.200%,<23,<23.100 <23.100 <23.100 <23.100%,–,–,–,5 ± 1,13.8 ± 1.5,44 ± 11,35.8 nM and 56 nM and 41.1 nM,0.8,–
